Assay [1] has as its system E. coli persister bacteria. Nature of the assay: Bactericidal activity against persistent bacteria (CFU counts), E. coli. The conditions noted are these: 25 μg/mL of test compound.
For assay [2], the system named is Staph. aureus stationary phase bacteria. Description: Bactericidal activity against stationary-phase cultures (CFU counts), Staph. aureus. The assay is classed as cell-based, Staphylococcus aureus. The note with it: 5 μg/mL of test compound.

SMILES strings stand for the structures.

Take `Cc1nc2ccc(Oc3ccccc3)cc2c2c1CCN2Cc1ccccc1` [Example 1(h), 1-Benzyl-4-methyl-8-phenoxy-2,3-dihydro-1H-pyrrolo[3,2-c]quinoline]: the log kill in assay [1] turned out to be 3.83.

On to `COc1cc(OC)c2nc(C)c3c(c2c1)N(c1cccc(Oc2ccccc2)c1)CC3.O=C(O)C(F)(F)F` [Example 1(a), 6,8-Dimethoxy-4-methyl-1-(3-phenoxyphenyl)-2,3-dihydro-1H-pyrrolo[3,2-c]quinoline trifluoroacetate], for which the log kill in assay [2] is on record as 3.55.

(Values after patent US9694006B2, “Use of pyrroloquinoline compounds to kill clinically latent microorganisms” (HELPERBY THERAPEUTICS LIMITED, priority 2005, dated 2017).)
